This is an account of results in patent US20120264231A1, “ASSAY FOR ORAI CALCIUM CHANNEL REGULATORS” (IMMUNE DISEASE INSTITUTE, INC., priority 2009, published 2012).

In this assay the test system is STIM1−/− T cells. The assay is described as follows: Single-cell [Ca2+]i measurement in STIM1−/− T cells expressing STIM1 fragments. In kind it is cell-based, murine. The following applies: for constitutive Ca^2+ influx: retroviral expression, Fura-2. The text has this: To determine the competence of STIM 1 fragments to activate ORAI1 in mammalian cells, Myc-tagged STIM 1^CT and its truncated variants were introduced by retroviral expression into STIM1−/− T cells, and their ability to elevate resting Ca^2+ permeability was examined in cells loaded with Fura-2. As in human Jurkat T cells (Huang, G. N., et al., (2006); supra), expression of the soluble cytoplasmic portion of STIM 1 activated Ca^2+ influx into STIM1−/− murine T cells (FIG. 11). Elevated Ca^2+ permeability was evident in a marked increase in cytoplasmic [Ca^2+] on changing to medium containing 2 mM Ca^2+ after brief exposure to nominally Ca^2+-free medium. […] Retroviral vector alone conferred no constitutive influx above the level in control cells, as previously shown (Oh-hora, M., et al., (2008), supra).
Retroviral expression plasmids encoding mouse STIM 1 and its cytoplasmic fragments (residues 233-685, 233-600, 233-498, or 233-463) were constructed by inserting the corresponding coding sequences between the XhoI and EcoRI sites of the vector pMSCV-CITE-eGFP-PGK-Puro (Clontech), which allows for coexpression of the inserted gene, GFP, and a puromycin resistance gene. GFP expression was used to estimate transducing efficiency.
Primary CD4^+ cells were purified from spleen and lymph nodes of Stim1^f1/f1 CD4-Cre^+ mice using Dynal magnetic beads (Invitrogen) following the manufacturer's instructions. Purified T cells were stimulated with anti-CD3 and anti-CD28, transduced with retroviruses obtained from transfected Phoenix packaging cells, and further expanded in IL-2-containing medium as described (Oh-hora, M., et al., Nat Immunol 9, 432-443 (2008); Ansel, K. M., et al., Nat Immunol 5, 1251-1259 (2004)). The transduction efficiency (>80%) was estimated by evaluating GFP expression using flow cytometry.
Retrovirus-transduced CD4^+ cells isolated from Stim1^f1/f1 CD4-Cre^+ mice were incubated overnight in IL-2 free RPMI medium and loaded with 2 μM Fura-2-acetoxylmethyl ester (Invitrogen) for 45 min at ambient temperature in the dark. T cells were further attached to coverslips precoated with 0.01% poly-L-lysine, mounted to a RC-20 closed-bath flow chamber (Warner Instrument), and bathed in Ringer's solution (155 mM NaCl, 4.5 mM KCl, 2 mM CaCl2, 1 mM MgCl2, 10 mM D-glucose and 5 mM HEPES, pH 7.4). For nominally Ca^2+-free Ringer's solution CaCl2 was replaced with MgCl2. After 5 minutes of equilibration in Ringer's solution, [Ca^2+]i measurement commenced with ˜3 min perfusion of T cells with Ca^2+-free Ringer's solution at ambient temperature, followed by perfusion of Ringer's solution containing 2 mM CaCl2. The cycle was repeated once with final addition of Ringer's solution supplemented with 2 μM LaCl3 to block Ca^2+ flux. Images were acquired using a Zeiss Axiovert S200 epifluorescence microscope and OpenLab imaging analysis software (Improvision). The fluorescence data (F340 nm/F380 nm) were collected every 4 s and analyzed as described (Oh-hora, M., et al., (2008), supra; Feske, S., et al., Nature 441, 179-185 (2006)). In each experiment, for each experimental condition, 50-100 GFP-positive CD4+ T cells were analyzed.

Consider “STIM1 (233-463): truncated mouse STIM1 cytoplasmic fragment, residues 233-463, His-tagged recombinant protein”, for which the “constitutive Ca^2+ influx” value is listed as “smaller but very clear constitutive Ca^2+ influx”. For “STIM1 (233-498): truncated mouse STIM1 cytoplasmic fragment, residues 233-498, His-tagged recombinant protein”, the “constitutive Ca^2+ influx” value was “activated a prominent constitutive Ca^2+ influx”. For the setting “compared with STIM1^CT”, the “maximum levels of cytoplasmic Ca^2+” value was “somewhat less than with STIM1^CT” and the “rate of rise of cytoplasmic Ca^2+” value was “nearly comparable to the rate with STIM 1^CT”. Take “STIM1^CT: cytoplasmic region of STIM1, mouse residues 233-685, His-tagged recombinant protein expressed in E coli”: under “on changing to medium containing 2 mM Ca^2+”, the “steepest rise of cytoplasmic [Ca^2+]” value was ~15 nM/s.
